From ChEMBL document CHEMBL1156106 (J Med Chem, 2009)

How the values were obtained:
Rattus norvegicus [1] = assay: Effect on behavioural activity in rat assessed as cocaine-induced lever response at 10 mg/kg, ip pretreated with cocaine for 30 mins by drug-discrimination studies; assay type: functional; conditions: route intraperitoneal
Rattus norvegicus [2] = assay: Effect on behavioural activity in rat assessed as cocaine-induced lever response at 2.5 mg/kg, po pretreated with cocaine for 90 mins by drug-discrimination studies; assay type: functional
[3] = target: Sodium-dependent noradrenaline transporter (Homo sapiens, UniProt P23975); assay: Displacement of [125I]RTI55 from cloned human NET expressed in HEK293 cells; assay type: cell-based
Sequence of Sodium-dependent noradrenaline transporter (P23975 whole entry): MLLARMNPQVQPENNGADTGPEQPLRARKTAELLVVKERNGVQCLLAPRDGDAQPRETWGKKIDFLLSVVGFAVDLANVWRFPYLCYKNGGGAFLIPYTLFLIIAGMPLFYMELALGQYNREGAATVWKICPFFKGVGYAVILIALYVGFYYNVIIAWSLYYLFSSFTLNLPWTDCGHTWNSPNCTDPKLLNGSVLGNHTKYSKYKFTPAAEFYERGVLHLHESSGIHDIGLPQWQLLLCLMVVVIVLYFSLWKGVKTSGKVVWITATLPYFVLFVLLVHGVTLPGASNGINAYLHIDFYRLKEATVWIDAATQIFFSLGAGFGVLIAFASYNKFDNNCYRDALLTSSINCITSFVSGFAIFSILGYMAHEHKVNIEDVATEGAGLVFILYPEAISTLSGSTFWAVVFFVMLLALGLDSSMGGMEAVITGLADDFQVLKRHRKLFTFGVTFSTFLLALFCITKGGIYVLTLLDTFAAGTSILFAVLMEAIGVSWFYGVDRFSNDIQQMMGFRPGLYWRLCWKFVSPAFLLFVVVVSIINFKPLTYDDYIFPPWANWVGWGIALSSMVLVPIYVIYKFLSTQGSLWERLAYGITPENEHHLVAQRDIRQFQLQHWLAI

Rattus norvegicus [4] = assay: Effect on behavioural activity in rat assessed as cocaine-induced lever response at 100 mg/kg, po pretreated with cocaine for 45 mins by drug-discrimination studies; assay type: functional
Rattus norvegicus [5] = assay: Effect on behavioural activity in rat assessed as cocaine-induced lever response at 50 mg/kg, po pretreated with cocaine for 180 mins by drug-discrimination studies; assay type: functional
Mus musculus [6] = assay: Antidepressant activity in ip dosed mouse assessed as stimulation of locomotor activity relative to cocaine; assay type: functional
Rattus norvegicus [7] = assay: Effect on behavioural activity in rat assessed as cocaine-induced lever response at 50 mg/kg, po pretreated with cocaine for 90 mins by drug-discrimination studies; assay type: functional
Rattus norvegicus [8] = assay: Effect on behavioural activity in ip dosed rat assessed as cocaine-induced lever response pretreated with cocaine by drug-discrimination studies; assay type: functional
Rattus norvegicus [9] = assay: Effect on behavioural activity in rat assessed as cocaine-induced lever response at 10 mg/kg, po pretreated with cocaine for 180 mins by drug-discrimination studies; assay type: functional
Rattus norvegicus [10] = assay: Effect on behavioural activity in rat assessed as cocaine-induced lever response at 200 mg/kg, po pretreated with cocaine for 45 mins by drug-discrimination studies; assay type: functional
Rattus norvegicus [11] = assay: Effect on behavioural activity in rat assessed as cocaine-induced lever response at 25 mg/kg, po pretreated with cocaine for 360 mins by drug-discrimination studies; assay type: functional
Rattus norvegicus [12] = assay: Effect on behavioural activity in rat assessed as cocaine-induced lever response at 50 mg/kg, po pretreated with cocaine for 45 mins by drug-discrimination studies; assay type: functional
Rattus norvegicus [13] = assay: Effect on behavioural activity in rat assessed as cocaine-induced lever response at 5 mg/kg, ip pretreated with cocaine for 30 mins by drug-discrimination studies; assay type: functional; conditions: route intraperitoneal
Rattus norvegicus [14] = assay: Effect on behavioural activity in rat assessed as cocaine-induced lever response at 200 mg/kg, po pretreated with cocaine for 180 mins by drug-discrimination studies; assay type: functional
[15] = target: Sodium-dependent serotonin transporter (Homo sapiens, UniProt P31645); assay: biochemical; assay type: cell-based, HEK293
Sequence of Sodium-dependent serotonin transporter (P31645 whole entry): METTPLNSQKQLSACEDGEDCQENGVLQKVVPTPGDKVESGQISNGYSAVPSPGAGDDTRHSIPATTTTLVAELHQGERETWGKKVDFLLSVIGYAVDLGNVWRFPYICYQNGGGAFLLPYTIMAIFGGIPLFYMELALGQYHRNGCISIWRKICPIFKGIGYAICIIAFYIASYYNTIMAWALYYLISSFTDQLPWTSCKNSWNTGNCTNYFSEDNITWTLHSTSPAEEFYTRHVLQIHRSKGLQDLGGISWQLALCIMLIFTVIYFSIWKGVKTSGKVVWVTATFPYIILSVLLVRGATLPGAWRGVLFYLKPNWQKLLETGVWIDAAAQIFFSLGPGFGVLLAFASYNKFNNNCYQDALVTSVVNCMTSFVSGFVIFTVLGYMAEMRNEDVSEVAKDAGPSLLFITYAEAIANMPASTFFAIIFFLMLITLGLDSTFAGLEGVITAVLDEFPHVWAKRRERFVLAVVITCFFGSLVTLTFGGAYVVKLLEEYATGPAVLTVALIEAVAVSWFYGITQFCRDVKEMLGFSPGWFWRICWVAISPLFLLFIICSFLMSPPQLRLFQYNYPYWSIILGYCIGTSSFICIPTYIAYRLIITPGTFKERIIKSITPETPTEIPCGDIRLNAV

Rattus norvegicus [16] = assay: Effect on behavioural activity in rat assessed as cocaine-induced lever response at 25 mg/kg, po pretreated with cocaine for 45 mins by drug-discrimination studies; assay type: functional
Rattus norvegicus [17] = assay: Effect on behavioural activity in rat assessed as cocaine-induced lever response at 10 mg/kg, po pretreated with cocaine for 90 mins by drug-discrimination studies; assay type: functional
Rattus norvegicus [18] = assay: Effect on behavioural activity in rat assessed as cocaine-induced lever response at 100 mg/kg, po pretreated with cocaine for 360 mins by drug-discrimination studies; assay type: functional
Rattus norvegicus [19] = assay: Effect on behavioural activity in rat assessed as cocaine-induced lever response at 200 mg/kg, po pretreated with cocaine for 360 mins by drug-discrimination studies; assay type: functional
Rattus norvegicus [20] = assay: Effect on behavioural activity in rat assessed as cocaine-induced lever response at 25 mg/kg, po pretreated with cocaine for 180 mins by drug-discrimination studies; assay type: functional
Rattus norvegicus [21] = assay: Effect on behavioural activity in rat assessed as cocaine-induced lever response at 2.5 mg/kg, ip pretreated with cocaine for 30 mins by drug-discrimination studies; assay type: functional; conditions: route intraperitoneal
Rattus norvegicus [22] = assay: Effect on behavioural activity in rat assessed as cocaine-induced lever response at 2.5 mg/kg, po pretreated with cocaine for 180 mins by drug-discrimination studies; assay type: functional
Rattus norvegicus [23] = assay: Effect on behavioural activity in rat assessed as cocaine-induced lever response at 25 mg/kg, po pretreated with cocaine for 90 mins by drug-discrimination studies; assay type: functional
Rattus norvegicus [24] = assay: Effect on behavioural activity in rat assessed as cocaine-induced lever response at 5 mg/kg, po pretreated with cocaine for 45 mins by drug-discrimination studies; assay type: functional
Rattus norvegicus [25] = assay: Effect on behavioural activity in rat assessed as cocaine-induced lever response at 2.5 mg/kg, po pretreated with cocaine for 360 mins by drug-discrimination studies; assay type: functional
Rattus norvegicus [26] = assay: Effect on behavioural activity in rat assessed as cocaine-induced lever response at 5 mg/kg, po pretreated with cocaine for 90 mins by drug-discrimination studies; assay type: functional
Rattus norvegicus [27] = assay: Effect on behavioural activity in rat assessed as cocaine-induced lever response at 5 mg/kg, po pretreated with cocaine for 360 mins by drug-discrimination studies; assay type: functional
Rattus norvegicus [28] = assay: Effect on behavioural activity in rat assessed as cocaine-induced lever response at 200 mg/kg, po pretreated with cocaine for 90 mins by drug-discrimination studies; assay type: functional
Mus musculus [29] = assay: Antidepressant activity in ip dosed mouse assessed as stimulation of locomotor activity; assay type: functional
Rattus norvegicus [30] = assay: Effect on behavioural activity in rat assessed as cocaine-induced lever response at 50 mg/kg, po pretreated with cocaine for 360 mins by drug-discrimination studies; assay type: functional
Rattus norvegicus [31] = assay: Effect on behavioural activity in rat assessed as cocaine-induced lever response at 100 mg/kg, po pretreated with cocaine for 90 mins by drug-discrimination studies; assay type: functional
Rattus norvegicus [32] = assay: Effect on behavioural activity in rat assessed as cocaine-induced lever response at 10 mg/kg, po pretreated with cocaine for 45 mins by drug-discrimination studies; assay type: functional
Rattus norvegicus [33] = assay: Effect on behavioural activity in rat assessed as cocaine-induced lever response at 100 mg/kg, po pretreated with cocaine for 180 mins by drug-discrimination studies; assay type: functional
Rattus norvegicus [34] = assay: Effect on behavioural activity in rat assessed as cocaine-induced lever response at 5 mg/kg, po pretreated with cocaine for 180 mins by drug-discrimination studies; assay type: functional
Rattus norvegicus [35] = assay: Effect on behavioural activity in rat assessed as cocaine-induced lever response at 2.5 mg/kg, po pretreated with cocaine for 45 mins by drug-discrimination studies; assay type: functional
Mus musculus [36] = assay: Antidepressant activity in ip dosed mouse assessed as time to reach peak stimulation of locomotor activity; assay type: functional
Rattus norvegicus [37] = assay: Effect on behavioural activity in po dosed rat assessed as cocaine-induced lever response pretreated with cocaine by drug-discrimination studies; assay type: functional
Rattus norvegicus [38] = assay: Effect on behavioural activity in rat assessed as cocaine-induced lever response at 25 mg/kg, ip pretreated with cocaine for 30 mins by drug-discrimination studies; assay type: functional; conditions: route intraperitoneal
Mus musculus [39] = assay: Antidepressant activity in ip dosed mouse assessed as duration of locomotor activity; assay type: functional
Rattus norvegicus [40] = assay: Effect on behavioural activity in rat assessed as cocaine-induced lever response at 10 mg/kg, po pretreated with cocaine for 360 mins by drug-discrimination studies; assay type: functional

`CC(NC(C)(C)C)C(=O)c1cccc(Br)c1` (stereo not given) was tested, and the Activity (Rattus norvegicus [1]) was 21%, the Activity (Rattus norvegicus [2]) was 0% and the Ki [3] was > 7.14 µM. The Activity (Rattus norvegicus [4]) was 67%, the Activity (Rattus norvegicus [5]) was 0% and the Activity (Mus musculus [6]) was 57%. It also gave an Activity (Rattus norvegicus [7]) of 21%, an ED50 (Rattus norvegicus [8]) of 39.6 mg/kg and an Activity (Rattus norvegicus [9]) of 0%. It also gave an Activity (Rattus norvegicus [10]) of 100%, an Activity (Rattus norvegicus [11]) of 0% and an Activity (Rattus norvegicus [12]) of 51%. For the same compound, the Activity (Rattus norvegicus [13]) was 34.4%, the Activity (Rattus norvegicus [14]) was 5% and the Ki [15] was > 10 µM. It also gave an Activity (Rattus norvegicus [16]) of 17%, an Activity (Rattus norvegicus [17]) of 0% and an Activity (Rattus norvegicus [18]) of 14%. For the same compound, the Activity (Rattus norvegicus [19]) was 34%, the Activity (Rattus norvegicus [20]) was 0% and the Activity (Rattus norvegicus [21]) was 0.3%. It also gave an Activity (Rattus norvegicus [22]) of 0%, an Activity (Rattus norvegicus [23]) of 0% and an Activity (Rattus norvegicus [24]) of 0%. For the same compound, the Activity (Rattus norvegicus [25]) was 33%, the Activity (Rattus norvegicus [26]) was 15% and the Activity (Rattus norvegicus [27]) was 7%. For the same compound, the Activity (Rattus norvegicus [28]) was 100%, the ED50 (Mus musculus [29]) was 13.5 mg/kg and the Activity (Rattus norvegicus [30]) was 0%. It also gave an Activity (Rattus norvegicus [31]) of 56%, an Activity (Rattus norvegicus [32]) of 0% and an Activity (Rattus norvegicus [33]) of 34%. For the same compound, the Activity (Rattus norvegicus [34]) was 0%, the Activity (Rattus norvegicus [35]) was 13% and the “Time to peak locomotor stimulation” value (Mus musculus [36]) was 0 min. For the same compound, the ED50 (Rattus norvegicus [37]) was 52.9 mg/kg, the Activity (Rattus norvegicus [38]) was 83.6% and the Time (Mus musculus [39]) was 90 min. The Activity (Rattus norvegicus [40]) was 0%.
